According to the NIST ThermoML archive (doi:10.1016/j.fluid.2013.07.012):

Assay: xn = mol fraction of the nth substance listed
Conditions: 101 kPa, Liquid, Direct current cell with electrodes

CCN(CC)CCO.Cl [2-(diethylamino)ethanol hydrochloride] + OCC(O)CO
electrical conductivity [S/m]
Conditions	x1 = 0.2	x1 = 0.25	x1 = 0.34
298.15 K	0.0487	0.0602	0.075
303.15 K	0.078	0.0958	0.118
308.15 K	0.11	0.104	0.164
313.15 K	0.139	0.156	0.207
318.15 K	0.188	0.211	0.2716
323.15 K	0.2357	0.264	0.3381
328.15 K	0.2716	0.3426	0.3903
333.15 K	0.3246	0.4086	0.4878
338.15 K	0.3962	0.4916	0.5754
343.15 K	0.4646	0.5748	0.6521
348.15 K	0.5335	0.6474	0.7754
353.15 K	0.6095	0.71	0.9109

CCN(CC)CCO.Cl [2-(diethylamino)ethanol hydrochloride] + OCCO
electrical conductivity [S/m]
Conditions	x1 = 0.2	x1 = 0.25	x1 = 0.34
298.15 K	0.5661	0.543	0.512
303.15 K	0.6994	0.6878	0.6627
308.15 K	0.8245	0.8305	0.794
313.15 K	0.9699	0.9486	0.9283
318.15 K	1.158	1.134	1.095
323.15 K	1.341	1.315	1.254
328.15 K	1.509	1.477	1.433
333.15 K	1.714	1.666	1.616
338.15 K	1.875	1.839	1.778
343.15 K	2.029	1.99	1.942
348.15 K	2.226	2.192	2.135
353.15 K	2.405	2.367	2.31

C[N+](C)(C)CCO.[Cl-] [choline chloride] + OCC(O)CO
electrical conductivity [S/m]
Conditions	x1 = 0.25	x1 = 0.34	x1 = 0.5
298.15 K	0.1463	0.1749	0.1929
303.15 K	0.1553	0.1951	0.219
308.15 K	0.203	0.2549	0.3161
313.15 K	0.257	0.3004	0.368
318.15 K	0.3112	0.399	0.4603
323.15 K	0.3816	0.512	0.5864
328.15 K	0.4811	0.6046	0.6668
333.15 K	0.5757	0.7187	0.7805
338.15 K	0.6717	0.816	0.898
343.15 K	0.7805	0.8955	0.9863
348.15 K	0.9286	1.063	1.155
353.15 K	1.08	1.219	1.295

C[N+](C)(C)CCO.[Cl-] [choline chloride] + OCCO
electrical conductivity [S/m]
Conditions	x1 = 0.28	x1 = 0.34	x1 = 0.36
298.15 K	0.832	0.733	0.68
303.15 K	1.067	1.019	0.9138
308.15 K	1.207	1.141	1.086
313.15 K	1.413	1.355	1.294
318.15 K	1.656	1.589	1.479
323.15 K	1.798	1.718	1.633
328.15 K	2.126	2.023	1.839
333.15 K	2.425	2.299	2.01
338.15 K	2.515	2.42	2.177
343.15 K	2.627	2.56	2.347
348.15 K	2.78	2.707	2.475
353.15 K	2.869	2.8072	2.604

C[P+](c1ccccc1)(c1ccccc1)c1ccccc1.[Br-] [methyltriphenylphosphonium bromide] + OCC(O)CO
electrical conductivity [S/m]
Conditions	x1 = 0.2	x1 = 0.25	x1 = 0.34
298.15 K	0.0116	0.0103	0.0062
303.15 K	0.0198	0.0172	0.0124
308.15 K	0.037	0.0319	0.0186
313.15 K	0.041	0.0394	0.0277
318.15 K	0.0607	0.0549	0.0405
323.15 K	0.0816	0.0719	0.0496
328.15 K	0.0965	0.0927	0.0701
333.15 K	0.1233	0.1124	0.0858
338.15 K	0.1608	0.1487	0.116
343.15 K	0.1971	0.1778	0.1493
348.15 K	0.2874	0.2196	0.1811
353.15 K	0.3594	0.2599	0.2154

C[P+](c1ccccc1)(c1ccccc1)c1ccccc1.[Br-] [methyltriphenylphosphonium bromide] + OCCO
electrical conductivity [S/m]
Conditions	x1 = 0.16	x1 = 0.2	x1 = 0.25
298.15 K	0.194	0.156	0.109
303.15 K	0.257	0.219	0.16
308.15 K	0.3103	0.2649	0.1914
313.15 K	0.3845	0.3246	0.2502
318.15 K	0.4437	0.3858	0.2964
323.15 K	0.5072	0.4405	0.3265
328.15 K	0.6279	0.5395	0.4307
333.15 K	0.711	0.6221	0.5129
338.15 K	0.8169	0.7423	0.5797
343.15 K	0.9496	0.8192	0.6923
348.15 K	1.031	0.9074	0.7372
353.15 K	1.12	1.003	0.8114
